Target: 5-HT5A (Homo sapiens, UniProt P47898)
Test: Affinity of selected compounds for 5-HT5A (Ki)
Type: binding
Experimental: In both assays, different concentrations of the test substances are used and the Ki and IC50 values are determined.

Chain of 5-HT5A (P47898 whole entry): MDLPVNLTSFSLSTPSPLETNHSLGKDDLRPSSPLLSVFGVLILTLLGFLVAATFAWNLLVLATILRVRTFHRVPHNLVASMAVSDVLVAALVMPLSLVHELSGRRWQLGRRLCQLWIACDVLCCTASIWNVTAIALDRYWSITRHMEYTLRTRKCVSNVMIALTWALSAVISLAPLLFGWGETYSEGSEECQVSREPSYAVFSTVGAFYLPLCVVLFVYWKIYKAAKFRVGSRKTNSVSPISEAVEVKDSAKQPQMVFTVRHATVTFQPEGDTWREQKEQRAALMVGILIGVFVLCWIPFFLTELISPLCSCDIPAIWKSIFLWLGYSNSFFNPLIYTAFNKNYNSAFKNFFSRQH

Compound	Ki
3-(2-Methoxybenzyl)-N-(1-naphthylmethyl)-3,4-dihydroquinazolin-2-amine hydrochloride [Example 99]	< 10000 nM
COc1cccc(O)c1Cc1cc2ccccc2nc1N [Example 2, 2-[(2-Aminoquinolin-3-yl)methyl]-3-methoxyphenol]	< 300 nM
CCOc1cccc(OC)c1Cc1cc2ccccc2nc1N [Example 4, 3-(2-Ethoxy-6-methoxybenzyl)quinolin-2-amine]	< 300 nM
COc1ccc2cc(Cc3ccccc3OC)c(N)nc2c1 [Example 6, 7-Methoxy-3-(2-methoxybenzyl)quinolin-2-amine]	< 300 nM
COc1cccc(OC)c1Cc1cc2cc(Cl)ccc2nc1N [Example 9, 6-Chloro-3-(2,6-dimethoxybenzyl)quinolin-2-amine]	< 300 nM
COc1ccccc1Cc1cc2cc3c(cc2nc1N)OCO3 [Example 14, 7-(2-Methoxybenzyl)[1.3]dioxolo[4.5-g]quinolin-6-amine]	< 300 nM
COc1ccccc1Cc1cc2cc(OC)c(OC)cc2nc1N [Example 16, 6,7-Dimethoxy-3-(2-methoxybenzyl)quinolin-2-amine]	< 300 nM
COc1cccc(OC)c1Cc1cc2cnccc2nc1N [Example 22, 3-(2,6-Dimethoxybenzyl)-1,6-naphthyridin-2-amine]	< 300 nM
COc1cccc(OC)c1Cc1cc2cc(F)ccc2nc1N [Example 23, 3-(2,6-Dimethoxybenzyl)-6-fluoroquinolin-2-amine]	< 300 nM
COc1cccc(F)c1Cc1cc2cc(F)ccc2nc1N [Example 24, 6-Fluoro-3-(2-fluoro-6-methoxybenzyl)quinolin-2-amine]	< 300 nM

More lines, now with the values ahead:

Ki	Compound
< 300 nM	COc1ccccc1Cc1cc2ccccc2nc1N [Example 1, 3-(2-Methoxybenzyl)quinolin-2-amine]
< 300 nM	COc1cccc(OC)c1Cc1cc2ccccc2nc1N [Example 3, 3-(2,6-Dimethoxybenzyl)quinolin-2-amine]
< 300 nM	COc1cccc(OC(C)C)c1Cc1cc2ccccc2nc1N [Example 5, 3-(2-Isopropoxy-6-methoxybenzyl)quinolin-2-amine]
< 300 nM	COc1ccc2nc(N)c(Cc3ccccc3OC)cc2c1 [Example 7, 6-Methoxy-3-(2-methoxybenzyl)quinolin-2-amine]
< 300 nM	COc1ccccc1Cc1cc2cc(Cl)ccc2nc1N [Example 11]
< 300 nM	COc1cccc(OC)c1Cc1cc2cc3c(cc2nc1N)OCO3 [Example 12]
< 300 nM	COc1cc2cc(Cc3c(OC)cccc3OC)c(N)nc2cc1OC [Example 13, 3-(2,6-Dimethoxybenzyl)-6,7-dimethoxy-quinolin-2-amine]
< 300 nM	COc1ccccc1Cc1cc2ccc(Cl)cc2nc1N [Example 15, 7-Chloro-3-(2-methoxybenzyl)quinolin-2-amine]
< 300 nM	COc1cccc(F)c1Cc1cc2cc3c(cc2nc1N)OCO3 [Example 17, 7-(2-Fluoro-6-methoxybenzyl)[1.3]dioxolo[4.5-g]quinolin-6-amine]
< 300 nM	COc1ccccc1Cc1cc2cc(F)ccc2nc1N [Example 18, 6-Fluoro-3-(2-methoxybenzyl)quinolin-2-amine]
< 300 nM	COc1ccccc1Cc1cc2c(Cl)cccc2nc1N [Example 19, 5-Chloro-3-(2-methoxybenzyl)quinolin-2-amine]
< 10000 nM	COc1cccc(OC)c1Cc1cc2cccnc2nc1N [Example 21, 3-(2,6-Dimethoxybenzyl)-1,8-naphthyridin-2-amine]
< 300 nM	Nc1nc2ccccc2cc1Cc1ccccc1O [Example 25, 2-[(2-Aminoquinolin-3-yl)methyl]phenol]
< 300 nM	COc1cccc(F)c1Cc1cc2ccc(Cl)cc2nc1N [Example 26, 7-Chloro-3-(2-fluoro-6-methoxybenzyl)quinolin-2-amine]
< 300 nM	COc1cccc(Cl)c1Cc1cc2ccc(Cl)cc2nc1N [Example 27, 7-Chloro-3-(2-chloro-6-methoxybenzyl)quinolin-2-amine]

From patent US8686002B2, “Heterocyclic compounds and their use as binding partners for 5-HT5 receptors” (AbbVie Deutschland GmbH & Co. KG, priority 2005, dated 2014)
